The target in one data set is JAK1 (Homo sapiens (Human), UniProt P23458). Description: LanthaScreen JAK biochemical assay (JAK1). Conditions: for fold less potent than the corresponding compound of the invention in the enzyme assay: JAK1 enzyme assay.
The subject of data set [1] is IL-13 induced STAT6 phosphorylation in BEAS-2B human lung epithelial cells. Put plainly: AlphaScreen cellular potency assay, IL-13 induced STAT6 phosphorylation in BEAS-2B cells. Type of data set: cell-based. Conditions: for IC50: Homo sapiens.
Description: The AlphaScreen JAM cellular potency assay was carried out by measuring interleukin-13 (IL-13, R&D Systems) induced STAT6 phosphorylation in BEAS-2B human lung epithelial cells (ATCC). The anti-STAT6 antibody (Cell Signaling Technologies) was conjugated to AlphaScreen acceptor beads (Perkin Elmer), while the anti-pSTAT6 (pTyr641) antibody (Cell Signaling Technologies) was biotinylated using EZ-Link Sulfo-NHS-Biotin (Thermo Scientific).
BEAS-2B cells were grown at 37° C. in a 5% CO2 humidified incubator in 50% DMEM/50% F-12 medium (Life Technologies) supplemented with 10% FBS (Hyclone), 100 U/mL penicillin, 100 μg/mL streptomycin (Life Technologies), and 2 mM GlutaMAX (Life Technologies). On day 1 of the assay, cells were seeded at a 7,500 cells/well density in white poly-D-lysine-coated 384-well plates (Corning) with 25 μL medium, and were allowed to adhere overnight in the incubator. On day 2 of the assay, the medium was removed and replaced with 12 μL of assay buffer (Hank's Balanced Salt Solution/HBSS, 25 mM HEPES, and 1 mg/ml bovine serum albumin/BSA) containing dose-responses of test compounds. Compounds were serially diluted in DMSO and then diluted another 1000-fold in media to bring the final DMSO concentration to 0.1%. Cells were incubated with test compounds at 37° C. for 1 h, and followed by the addition of 12 μl of pre-warmed IL-13 (80 ng/ml in assay buffer) for stimulation. After incubating at 37° C. for 30 min, the assay buffer (containing compound and IL-13) was removed, and 10 μl of cell lysis buffer (25 mM HEPES, 0.1% SDS, 1% NP-40, 5 mM MgCl2, 1.3 mM EDTA, 1 mM EGTA, and supplement with Complete Ultra mini protease inhibitors and PhosSTOP from Roche Diagnostics). The plates were shaken at ambient temperature for 30 min before the addition of detection reagents. A mixture of biotin-anti-pSTAT6 and anti-STAT6 conjugated acceptor beads was added first and incubated at ambient temperature for 2 h, followed by the addition of streptavidin conjugated donor beads (Perkin Elmer). After a minimum of 2 h incubation, the assay plates were read on the EnVision plate reader.
Results were expressed as the negative logarithm of the IC50 value, pIC50.
A further data set addresses JAK3 (Homo sapiens (Human), UniProt P52333). Put plainly: LanthaScreen JAK biochemical assay (JAK3). Conditions: ATP at Km 1.6 μM; read-out: JAK 3 (pKi) (converted).
Another data set deals with Tyk2 (Homo sapiens (Human), UniProt P29597). Description: LanthaScreen JAK biochemical assay (Tyk2). Further: ATP at Km 10 µM. The conditions noted are these: read-out: Tyk 2 (PKi).
Sequence of Tyk2 (P29597 whole entry): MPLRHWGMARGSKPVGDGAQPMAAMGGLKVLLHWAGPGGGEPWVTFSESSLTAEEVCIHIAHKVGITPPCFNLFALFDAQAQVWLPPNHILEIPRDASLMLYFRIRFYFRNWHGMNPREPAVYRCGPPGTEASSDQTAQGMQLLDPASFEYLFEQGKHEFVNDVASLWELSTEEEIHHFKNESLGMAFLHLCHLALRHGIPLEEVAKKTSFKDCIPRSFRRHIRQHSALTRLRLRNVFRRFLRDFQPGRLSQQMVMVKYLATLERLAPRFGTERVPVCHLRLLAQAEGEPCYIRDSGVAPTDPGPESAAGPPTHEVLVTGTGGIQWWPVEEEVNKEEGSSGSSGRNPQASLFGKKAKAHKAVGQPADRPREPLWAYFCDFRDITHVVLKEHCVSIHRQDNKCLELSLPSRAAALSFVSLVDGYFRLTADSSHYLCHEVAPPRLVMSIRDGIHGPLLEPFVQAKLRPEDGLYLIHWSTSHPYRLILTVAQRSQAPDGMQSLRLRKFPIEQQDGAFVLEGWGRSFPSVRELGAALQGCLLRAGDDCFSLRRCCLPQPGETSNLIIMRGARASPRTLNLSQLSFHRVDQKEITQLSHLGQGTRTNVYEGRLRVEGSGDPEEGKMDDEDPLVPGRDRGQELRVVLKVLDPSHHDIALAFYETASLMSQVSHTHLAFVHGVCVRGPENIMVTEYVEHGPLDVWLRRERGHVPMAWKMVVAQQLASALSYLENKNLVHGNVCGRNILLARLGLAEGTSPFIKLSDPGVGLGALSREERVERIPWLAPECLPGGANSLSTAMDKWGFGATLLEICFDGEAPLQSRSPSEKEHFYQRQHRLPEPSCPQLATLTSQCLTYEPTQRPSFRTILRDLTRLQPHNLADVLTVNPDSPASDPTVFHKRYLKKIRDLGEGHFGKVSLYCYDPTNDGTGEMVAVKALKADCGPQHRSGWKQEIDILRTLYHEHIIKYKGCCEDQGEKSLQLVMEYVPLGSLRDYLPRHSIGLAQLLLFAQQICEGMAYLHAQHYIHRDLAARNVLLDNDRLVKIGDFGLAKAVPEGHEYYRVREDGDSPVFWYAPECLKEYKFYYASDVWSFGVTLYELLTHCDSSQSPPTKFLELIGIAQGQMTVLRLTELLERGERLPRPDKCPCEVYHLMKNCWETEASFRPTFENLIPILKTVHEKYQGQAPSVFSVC
The nature of data set [2]: Pharmacokinetics in plasma and lung in mouse. Type of data set: in vivo. The conditions noted are these: oral aspiration 0.2 mg/mL 50 uL, lung AUC (μg hr/g) / plasma AUC (μg hr/mL). As to the method: Plasma and lung levels of test compounds and ratios thereof were determined in the following manner. BALB/c mice from Charles River Laboratories were used in the assay. Test compounds were individually formulated in 20% propylene glycol in pH 4 citrate buffer at a concentration of 0.2 mg/mL and 50 uL of the dosing solution was introduced into the trachea of a mouse by oral aspiration. At various time points (typically 0.167, 2, 6, 24 hr) post dosing, blood samples were removed via cardiac puncture and intact lungs were excised from the mice. Blood samples were centrifuged (Eppendorf centrifuge, 5804R) for 4 minutes at approximately 12,000 rpm at 4° C. to collect plasma. Lungs were padded dry, weighed, and homogenized at a dilution of 1:3 in sterile water. Plasma and lung levels of test compound were determined by LC-MS analysis against analytical standards constructed into a standard curve in the test matrix. A lung to plasma ratio was determined as the ratio of the lung AUC in μg hr/g to the plasma AUC in μg hr/mL, where AUC is conventionally defined as the area under the curve of test compound concentration vs. time.

Data set [3] concerns IL-13 induced pSTAT6 in lung tissue. Put plainly: Murine model of IL-13 induced pSTAT6 induction in lung tissue. Type of data set: in vivo. The conditions noted are these: mouse lung; for inhibition in vivo at 500 µg/mL: 0.5 mg/mL, 50 μL oral aspiration, IL-13 challenge 4 h after dosing, lungs collected 1 h later, read-out: pSTAT6 inhibition Assay 5; for factor by which lung concentration was smaller than that of the corresponding compound of the invention: pharmacodynamic assay. The method, then: Il-13 is an important cytokine underlying the pathophysiology of asthma (Kudlacz et al. Eur. J. Pharmacol, 2008, 582, 154-161). IL-13 binds to cell surface receptors activating members of the Janus family of kinases (JAK) which then phosphorylate STAT6 and subsequently activates further transcription pathways. In the described model, a dose of IL-13 was delivered locally into the lungs of mice to induce the phosphorylation of STAT6 (pSTAT6) which is then measured as the endpoint.
Adult balb/c mice from Harlan were used in the assay. On the day of study, animals were lightly anesthetized with isoflurane and administered either vehicle or test compound (0.5 mg/mL, 50 μL total volume over several breaths) via oral aspiration. Animals were placed in lateral recumbency post dose and monitored for full recovery from anesthesia before being returned to their home cage. Four hours later, animals were once again briefly anesthetized and challenged with either vehicle or IL-13 (0.03 μg total dose delivered, 50 μL total volume) via oral aspiration before being monitored for recovery from anesthesia and returned to their home cage. One hour after vehicle or IL-13 administration, lungs were collected for both pSTAT6 detection using an anti-pSTAT6 ELISA (rabbit mAb capture/coating antibody; mouse mAb detection/report antibody: anti-pSTAT6-pY641; secondary antibody: anti-mouse IgG-HRP) and analyzed for total drug concentration as described above in Assay 4.
Selected compounds of the invention were tested in the assay. Activity in the model is evidenced by a decrease in the level of pSTAT6 present in the lungs of treated animals at 5 hours compared to the vehicle treated, IL-13 challenged control animals. The difference between the control animals which were vehicle-treated, IL-13 challenged and the control animals which were vehicle-treated, vehicle challenged dictated the 0% and 100% inhibitory effect, respectively, in any given experiment.

The subject of data set [4] is Alternaria-induced BALF eosinophils. Put plainly: Murine model of Alternaria alternata-induced eosinophilic inflammation of the lung. Type of data set: in vivo. Conditions: mouse; maximum statistically significant inhibition; 0.1-1.0 mg/mL, 50 μL oropharyngeal aspiration; BALF 48 h after alternaria. The method, then:
Airway eosinophilia is a hallmark of human asthma. Alternaria alternata is a fungal aeroallergen that can exacerbate asthma in humans and induces eosinophilic inflammation in the lungs of mice (Havaux et al. Clin Exp Immunol. 2005, 139(2):179-88).
Seven- to nine-week old male C57 mice from Taconic were used in the study. On the day of study, animals were lightly anesthetized with isoflurane and administered either vehicle or test compound (0.1-1.0 mg/mL, 50 μL total volume over several breaths) via oropharyngeal aspiration. Animals were placed in lateral recumbency post dose and monitored for full recovery from anesthesia before being returned to their home cage. One hour later, animals were once again briefly anesthetized and challenged with either vehicle or alternaria extract (200 ug total extract delivered, 50 μL total volume) via oropharyngeal aspiration before being monitored for recovery from anesthesia and returned to their home cage. Forty-eight hours after alternaria administration, bronchoalveolar lavage fluid (BALF) was collected and eosinophils were counted in the BALF using the Advia 120 Hematology System (Siemens).
Selected compounds of the invention were tested in this alternaria assay. Activity in the model is evidenced by a decrease in the level of eosinophils present in the BALF of treated animals at forty-eight hours compared to the vehicle treated, alternaria challenged control animals. Data are expressed as percent inhibition of the vehicle treated, alternaria challenged BALF eosinophils response. To calculate percent inhibition, the number of BALF eosinophils for each condition is converted to percent of the average vehicle treated, alternaria challenged BALF eosinophils and subtracted from one-hundred percent.

A further data set deals with JAK2 (Homo sapiens (Human), UniProt O60674).
Sequence of JAK2 (O60674 whole entry): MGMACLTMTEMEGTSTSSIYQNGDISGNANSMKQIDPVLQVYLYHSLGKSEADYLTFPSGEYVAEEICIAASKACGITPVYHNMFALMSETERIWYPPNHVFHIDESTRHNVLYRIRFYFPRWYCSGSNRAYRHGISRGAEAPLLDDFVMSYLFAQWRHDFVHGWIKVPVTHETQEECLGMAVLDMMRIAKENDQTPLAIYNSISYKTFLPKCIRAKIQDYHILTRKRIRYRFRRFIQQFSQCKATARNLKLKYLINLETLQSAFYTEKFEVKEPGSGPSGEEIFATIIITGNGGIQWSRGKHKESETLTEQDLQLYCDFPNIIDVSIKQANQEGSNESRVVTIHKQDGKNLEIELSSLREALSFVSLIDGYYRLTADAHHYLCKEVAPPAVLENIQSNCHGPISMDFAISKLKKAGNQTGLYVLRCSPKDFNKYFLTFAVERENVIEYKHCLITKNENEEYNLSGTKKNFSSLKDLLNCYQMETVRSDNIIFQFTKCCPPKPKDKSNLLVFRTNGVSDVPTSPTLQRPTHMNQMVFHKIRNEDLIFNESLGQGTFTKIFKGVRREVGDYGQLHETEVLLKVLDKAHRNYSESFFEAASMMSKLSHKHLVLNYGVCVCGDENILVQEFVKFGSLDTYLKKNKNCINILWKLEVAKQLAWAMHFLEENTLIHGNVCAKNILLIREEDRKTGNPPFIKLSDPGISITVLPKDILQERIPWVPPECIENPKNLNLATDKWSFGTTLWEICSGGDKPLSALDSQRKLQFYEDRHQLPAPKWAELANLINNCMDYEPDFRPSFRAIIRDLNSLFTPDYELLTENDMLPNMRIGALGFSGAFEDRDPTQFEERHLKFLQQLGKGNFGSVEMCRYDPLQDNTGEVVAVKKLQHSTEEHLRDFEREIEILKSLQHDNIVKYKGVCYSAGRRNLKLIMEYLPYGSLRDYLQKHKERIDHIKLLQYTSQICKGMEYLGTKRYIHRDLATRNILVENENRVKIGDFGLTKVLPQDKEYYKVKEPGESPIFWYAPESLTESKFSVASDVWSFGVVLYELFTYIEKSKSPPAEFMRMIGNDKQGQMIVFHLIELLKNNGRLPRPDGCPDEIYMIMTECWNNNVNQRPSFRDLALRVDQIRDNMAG
Data set [5] can be described thus: Dynamic moisture sorption assessment. Format: physicochemical. The method, then: Dynamic moisture sorption (DMS) measurement was performed using a VTI atmospheric microbalance, SGA-100 system (VTI Corp., Hialeah, Fla. 33016). A weighed sample was used and the humidity was lowest possible value (close to 0% RH) at the start of the analysis. The DMS analysis consisted of an initial drying step (˜0% RH) for 120 minutes, followed by two cycles of sorption and desorption with a scan rate of 5% RH/step over the humidity range of 5% RH to 90% RH. The DMS run was performed isothermally at 25° C.

[6] abbreviates: read-out: pKi, JAK1 enzyme assay (converted).
Setting [7] is: BEAS-2B, read-out: BEAS-2B pIC50 (cellular potency) (converted).
The mark [8] stands for this setting: IL-13 induced STAT6 phosphorylation, BEAS-2B cells, read-out: BEAS-2B pIC50 (converted).

Where two headings read alike, the source gives them in different places. Where only a bound is given, the exact number is not on record here.

Results on 10 compounds are retold here after US10100049B2, “JAK kinase inhibitor compounds for treatment of respiratory disease” (THERAVANCE BIOPHARMA R&D IP, LLC, priority 2015, dated 2018).

Sequence of JAK1 (P23458 whole entry): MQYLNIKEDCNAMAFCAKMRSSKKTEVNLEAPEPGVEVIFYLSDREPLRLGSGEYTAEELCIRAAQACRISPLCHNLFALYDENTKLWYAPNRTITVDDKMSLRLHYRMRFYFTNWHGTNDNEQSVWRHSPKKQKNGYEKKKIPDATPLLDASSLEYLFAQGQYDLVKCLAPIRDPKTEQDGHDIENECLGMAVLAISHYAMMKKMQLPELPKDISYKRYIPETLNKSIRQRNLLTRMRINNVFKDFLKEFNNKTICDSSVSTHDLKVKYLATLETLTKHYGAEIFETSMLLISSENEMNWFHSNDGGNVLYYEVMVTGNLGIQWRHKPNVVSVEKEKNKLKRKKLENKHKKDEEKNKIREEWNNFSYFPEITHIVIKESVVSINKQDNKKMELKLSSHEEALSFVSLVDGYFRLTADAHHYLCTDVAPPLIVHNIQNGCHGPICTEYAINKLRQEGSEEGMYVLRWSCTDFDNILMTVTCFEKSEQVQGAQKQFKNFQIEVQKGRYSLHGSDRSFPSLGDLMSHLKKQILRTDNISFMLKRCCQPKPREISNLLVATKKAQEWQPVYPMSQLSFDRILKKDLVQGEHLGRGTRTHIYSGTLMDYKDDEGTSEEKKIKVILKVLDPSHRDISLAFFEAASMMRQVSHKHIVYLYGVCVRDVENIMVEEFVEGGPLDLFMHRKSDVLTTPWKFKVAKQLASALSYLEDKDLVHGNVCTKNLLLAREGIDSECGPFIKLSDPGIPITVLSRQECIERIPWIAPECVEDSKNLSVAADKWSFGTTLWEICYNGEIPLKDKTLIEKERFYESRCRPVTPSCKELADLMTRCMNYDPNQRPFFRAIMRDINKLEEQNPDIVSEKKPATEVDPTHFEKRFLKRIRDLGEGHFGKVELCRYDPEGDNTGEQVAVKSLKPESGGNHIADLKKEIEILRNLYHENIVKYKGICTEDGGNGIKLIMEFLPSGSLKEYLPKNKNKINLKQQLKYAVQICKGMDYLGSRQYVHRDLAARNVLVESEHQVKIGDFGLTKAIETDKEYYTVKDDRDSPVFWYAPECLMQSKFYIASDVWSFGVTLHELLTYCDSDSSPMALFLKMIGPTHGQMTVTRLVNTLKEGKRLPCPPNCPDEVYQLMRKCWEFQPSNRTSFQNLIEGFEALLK
Sequence of JAK3 (P52333 whole entry): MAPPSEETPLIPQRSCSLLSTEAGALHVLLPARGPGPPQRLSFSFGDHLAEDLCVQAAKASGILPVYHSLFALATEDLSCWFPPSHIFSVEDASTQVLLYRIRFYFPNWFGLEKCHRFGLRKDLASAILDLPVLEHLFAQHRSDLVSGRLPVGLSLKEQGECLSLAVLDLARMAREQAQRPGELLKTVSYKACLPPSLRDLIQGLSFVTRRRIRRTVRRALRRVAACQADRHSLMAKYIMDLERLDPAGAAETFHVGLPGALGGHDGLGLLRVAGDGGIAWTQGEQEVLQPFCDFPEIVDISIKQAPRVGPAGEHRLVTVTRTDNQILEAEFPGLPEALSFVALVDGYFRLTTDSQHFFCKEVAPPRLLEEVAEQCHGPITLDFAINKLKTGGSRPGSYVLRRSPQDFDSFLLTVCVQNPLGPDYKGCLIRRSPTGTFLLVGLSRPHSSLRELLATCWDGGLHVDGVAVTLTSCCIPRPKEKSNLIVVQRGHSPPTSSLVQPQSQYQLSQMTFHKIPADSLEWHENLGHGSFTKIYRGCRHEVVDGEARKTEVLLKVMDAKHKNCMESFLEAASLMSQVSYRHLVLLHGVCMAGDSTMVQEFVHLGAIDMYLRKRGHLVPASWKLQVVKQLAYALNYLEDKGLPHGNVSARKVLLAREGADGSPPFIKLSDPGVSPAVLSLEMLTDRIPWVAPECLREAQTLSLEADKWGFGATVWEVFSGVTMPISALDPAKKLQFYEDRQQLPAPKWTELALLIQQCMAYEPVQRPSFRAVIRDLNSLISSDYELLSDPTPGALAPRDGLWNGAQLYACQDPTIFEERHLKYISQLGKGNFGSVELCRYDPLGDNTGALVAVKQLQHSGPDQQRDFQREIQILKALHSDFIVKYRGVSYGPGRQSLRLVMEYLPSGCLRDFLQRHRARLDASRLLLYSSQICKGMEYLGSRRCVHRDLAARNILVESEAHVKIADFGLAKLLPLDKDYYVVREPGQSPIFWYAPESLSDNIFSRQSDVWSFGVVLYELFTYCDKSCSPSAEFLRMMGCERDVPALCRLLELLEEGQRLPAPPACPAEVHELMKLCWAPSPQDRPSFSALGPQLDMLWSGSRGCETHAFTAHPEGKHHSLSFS

On to `CCc1cc(O)c(F)cc1-c1ccc2c(-c3nc4c([nH]3)CCN(CC3CCCN3C3COC3)C4)n[nH]c2c1` (stereo not shown) [Example 4-8], for which the Ki on JAK1 (setting [6]) is 1 to 3.16 nM. The IC50 in [1] (setting [7]) was 39.8 to 1000 nM.
For `CCc1cc(O)c(F)cc1-c1ccc2c(-c3nc4c([nH]3)CCN(CCNC3CC(OC)C3)C4)n[nH]c2c1` (stereo not shown) [Example 8, 5-Ethyl-2-fluoro-4-(3-(5-(2-((3-methoxycyclobutyl)amino)ethyl)-4,5,6,7-tetrahydro-1H-imidazo[4,5-c]pyridin-2-yl)-1H-indazol-6-yl)phenol], the Ki at JAK3 is 0.1 to 1 nM; on Tyk2, 0.1 to 1 nM; at JAK2 it was below 0.1 nM. Also, the IC50 in data set [1] (setting [8]) is below 10 nM. Besides, in data set [2], the “Lung to Plasma ratio Assay 4” value is given as “A (A denotes a ratio >100)”. The inhibition in vivo at 500 µg/mL in data set [3] was in the range of 50 to 65%. Moreover, the “Percent Inhibition of Alternaria-induced BALF Eosinophils” value (“Percent Inhibition” for short) in data set [4] amounted to 60%.
Regarding `CCc1cc(O)c(F)cc1-c1ccc2c(-c3nc4c([nH]3)CCN(CC3CCN3C3COC3)C4)n[nH]c2c1` (stereo not shown) [Example 8-11], the Ki on JAK1 (setting [6]) is 1 to 3.16 nM. In addition, the IC50 in data set [1] (setting [7]) was 39.8 to 1000 nM.
`CCc1cc(O)c(F)cc1-c1ccc2c(-c3nc4c([nH]3)CCN(C[C@@H]3CCCN3C)C4)n[nH]c2c1` [Example 11, (S)-5-ethyl-2-fluoro-4-(3-(5-((1-methylpyrrolidin-2-yl)methyl)-4,5,6,7-tetrahydro-1H-imidazo[4,5-c]pyridin-2-yl)-1H-indazol-6-yl)phenol]: the Ki was 0.1 to 1 nM at JAK1 (ATP at Km 25 μM, read-out: JAK 1 (pKi) (converted)); 0.1 to 1 nM at JAK3; 0.316 to 1 nM at Tyk2; below 0.1 nM on JAK2. For the same compound, the IC50 in data set [1] (setting [8]) is below 10 nM. For the same compound, the “Lung to Plasma ratio Assay 4” value in [2] is on record as “A (A denotes a ratio >100)”. Moreover, the inhibition in vivo at 500 µg/mL in data set [3] lay in the range of 33 to 50%. The “Percent Inhibition” value in [4] amounted to 71%.
As for `CCc1cc(O)c(F)cc1-c1ccc2c(-c3nc4c([nH]3)CCN(C[C@H]3COCCN3)C4)n[nH]c2c1` [Example 13, (S)-5-Ethyl-2-fluoro-4-(3-(5-(morpholin-3-ylmethyl)-4,5,6,7-tetrahydro-1H-imidazo[4,5-c]pyridin-2-yl)-1H-indazol-6-yl)phenol], the Ki at JAK3 is 0.1 to 1 nM; at Tyk2, 0.316 to 1 nM; at JAK2, below 0.1 nM. Moreover, the IC50 in data set [1] (setting [8]) is below 10 nM. Further, the “Lung to Plasma ratio Assay 4” value in data set [2] is given as “A (A denotes a ratio >100)”. In addition, the inhibition in vivo at 500 µg/mL in [3] lay in the range of 33 to 50%. In addition, the “Percent Inhibition” value in [4] was found to be 82%.
Take `CCc1cc(O)c(F)cc1-c1ccc2c(-c3nc4c([nH]3)CCN(C3CC(C)C3)C4)n[nH]c2c1` (stereo not shown) [Example C-1, 5-Ethyl-2-fluoro-4-(3-(5-(3-methylcyclobutyl)-4,5,6,7-tetrahydro-1H-imidazo[4,5-c]pyridin-2-yl)-1H-indazol-6-yl)phenol, reference compound]: at JAK1, the “fold less potent than the corresponding compound of the invention in the enzyme assay” value is 2 fold. Besides, in [1], the “fold less potent than the corresponding compound of the invention in the BEAS-2B cellular assay” value came to 6 fold. In addition, the “factor by which lung concentration was smaller than that of the corresponding compound of the invention” value (“factor” for short) in data set [3] is recorded as 36.
Consider `CCc1cc(O)c(F)cc1-c1ccc2c(-c3nc4c([nH]3)CCN(CCC(C)C)C4)n[nH]c2c1` [Example C-2, reference compound], for which the “fold less potent than the corresponding compound of the invention in the enzyme assay” value at JAK1 turned out to be 3 fold. Moreover, the “fold less potent than the corresponding compound of the invention in the BEAS-2B cellular assay” value in data set [1] is recorded as 6 fold. For the same compound, the “factor” value in [3] is on record as 52.
For `CCc1cc(O)c(F)cc1-c1ccc2c(-c3nc4c([nH]3)CCN(CC3CCCOC3)C4)n[nH]c2c1` (stereo not shown) [Example C-3, reference compound], on JAK1, the “fold less potent than the corresponding compound of the invention in the enzyme assay” value is on record as 6 fold. Moreover, the “fold less potent than the corresponding compound of the invention in the BEAS-2B cellular assay” value in data set [1] was 3 fold. Also, the “factor” value in data set [3] amounted to 13.
On to `CCc1cc(O)c(F)cc1-c1ccc2c(-c3nc4c([nH]3)CCN(C3CCC(C)CC3)C4)n[nH]c2c1` (stereo not shown) [Example C-4, reference compound], for which, on JAK1, the “fold less potent than the corresponding compound of the invention in the enzyme assay” value was 2.5 fold. The “fold less potent than the corresponding compound of the invention in the BEAS-2B cellular assay” value in data set [1] was 6 fold. For the same compound, in data set [3], the “factor” value is 23.
For `CCc1cc(O)c(F)cc1-c1ccc2c(-c3nc4c([nH]3)CCN(C3CCN(C)CC3)C4)n[nH]c2c1` [crystalline hydrate, Crystalline hydrate of 5-ethyl-2-fluoro-4-(3-(5-(1-methylpiperidin-4-yl)-4,5,6,7-tetrahydro-1H-imidazo[4,5-c]pyridin-2-yl)-1H-indazol-6-yl)phenol], the “weight gain (moisture sorption)” value in data set [5] (5% to 90% relative humidity, about 25° C.) is listed as “less than 0.12%”. Besides, the hygroscopicity result in data set [5] (two cycles of sorption and desorption) is recorded as “non-hygroscopic”.
